Source: PubChem BioAssay AID1259407 (Chemical Carcinogenesis Research Information System (CCRIS), 2018)
Activity calls are given as the source filed them. No rule for the calls is given here.

System: CCRIS mutagenicity, Ames/micronucleus/aberration tests
Assay: CCRIS mutagenicity studies
[1] = Test System: AMES SALMONELLA TYPHIMURIUM, Strain/Indicator: TA97, Metabolic Activation: NONE, Method: PREINCUBATION
[2] = Test System: AMES SALMONELLA TYPHIMURIUM, Strain/Indicator: TA98, Metabolic Activation: NONE, Method: PREINCUBATION
[3] = Test System: AMES SALMONELLA TYPHIMURIUM, Strain/Indicator: TA100, Metabolic Activation: NONE, Method: PREINCUBATION
[4] = Test System: AMES SALMONELLA TYPHIMURIUM, Strain/Indicator: TA1535, Metabolic Activation: NONE, Method: PREINCUBATION
[5] = Test System: AMES SALMONELLA TYPHIMURIUM, Strain/Indicator: TA98, Metabolic Activation: HAMSTER, LIVER, S-9, AROCLOR 1254 (30%), Method: PREINCUBATION
[6] = Test System: AMES SALMONELLA TYPHIMURIUM, Strain/Indicator: TA98, Metabolic Activation: RAT, LIVER, S-9, AROCLOR 1254 (30%), Method: PREINCUBATION
[7] = Test System: AMES SALMONELLA TYPHIMURIUM, Strain/Indicator: TA100, Metabolic Activation: HAMSTER, LIVER, S-9, AROCLOR 1254 (30%), Method: PREINCUBATION
[8] = Test System: AMES SALMONELLA TYPHIMURIUM, Strain/Indicator: TA100, Metabolic Activation: RAT, LIVER, S-9, AROCLOR 1254 (30%), Method: PREINCUBATION

SMILES: C=CCSSCCC
- mutagenic call (Test System: AMES SALMONELLA TYPHIMURIUM, Strain/Indicator: TA97, Metabolic Activation: HAMSTER, LIVER, S-9, AROCLOR 1254 (10 OR 30%), Method: PREINCUBATION): inactive; negative
- mutagenic call [1]: inactive; negative
- mutagenic call (Test System: AMES SALMONELLA TYPHIMURIUM, Strain/Indicator: TA97, Metabolic Activation: RAT, LIVER, S-9, AROCLOR 1254 (10 OR 30%), Method: PREINCUBATION): inactive; negative
- mutagenic call (Test System: AMES SALMONELLA TYPHIMURIUM, Strain/Indicator: TA98, Metabolic Activation: HAMSTER, LIVER, S-9, AROCLOR 1254 (10 OR 30%), Method: PREINCUBATION): inactive; negative
- mutagenic call [2]: inactive; negative
- mutagenic call (Test System: AMES SALMONELLA TYPHIMURIUM, Strain/Indicator: TA98, Metabolic Activation: RAT, LIVER, S-9, AROCLOR 1254 (10 OR 30%), Method: PREINCUBATION): inactive; negative
- mutagenic call (Test System: AMES SALMONELLA TYPHIMURIUM, Strain/Indicator: TA100, Metabolic Activation: HAMSTER, LIVER, S-9, AROCLOR 1254 (10 OR 30%), Method: PREINCUBATION): inactive; negative
- mutagenic call [3]: inactive; negative
- mutagenic call (Test System: AMES SALMONELLA TYPHIMURIUM, Strain/Indicator: TA100, Metabolic Activation: RAT, LIVER, S-9, AROCLOR 1254 (10 OR 30%), Method: PREINCUBATION): inactive; negative
- mutagenic call (Test System: AMES SALMONELLA TYPHIMURIUM, Strain/Indicator: TA1535, Metabolic Activation: HAMSTER, LIVER, S-9, AROCLOR 1254 (10 OR 30%), Method: PREINCUBATION): inactive; negative
- mutagenic call [4]: inactive; negative
- mutagenic call (Test System: AMES SALMONELLA TYPHIMURIUM, Strain/Indicator: TA1535, Metabolic Activation: RAT, LIVER, S-9, AROCLOR 1254 (10 OR 30%), Method: PREINCUBATION): inactive; negative

SMILES: CCc1c(O)c(=O)ccn1CC
- mutagenic call (Test System: Mouse lymphoma, Strain/Indicator: L5178Y (tk+/tk-), Metabolic Activation: None, Method: Suspension/plate): active; positive
- mutagenic call (Test System: Mouse lymphoma, Strain/Indicator: L5178Y (tk+/tk-), Metabolic Activation: Rat, Liver, S-9, Aroclor 1254, Method: Suspension/plate): active; positive

SMILES: Cc1ccc2c(c1N)C(=O)c1ccccc1C2=O
- mutagenic call [5]: active; positive
- mutagenic call [2]: inactive; negative
- mutagenic call [6]: active; positive
- mutagenic call [7]: inactive; negative
- mutagenic call [3]: inactive; negative
- mutagenic call [8]: active; positive
- mutagenic call (Test System: AMES SALMONELLA TYPHIMURIUM, Strain/Indicator: TA1537 R+, Metabolic Activation: NONE, Method: STANDARD PLATE): active; positive
- mutagenic call (Test System: AMES SALMONELLA TYPHIMURIUM, Strain/Indicator: TA1537 R+, Metabolic Activation: RAT, LIVER, S-9, AROCLOR 1254, Method: STANDARD PLATE): active; positive
- mutagenic call (Test System: MOUSE LYMPHOMA, Strain/Indicator: L5178Y (TK+/TK-), Metabolic Activation: NONE, Method: SUSPENSION/PLATE): active; positive

SMILES: Oc1ccc(Nc2ccc3ccccc3c2)cc1
- mutagenic call (Test System: AMES SALMONELLA TYPHIMURIUM, Strain/Indicator: TA97, Metabolic Activation: HAMSTER, LIVER, S-9, AROCLOR 1254 (10%), Method: PREINCUBATION): inactive; negative
- mutagenic call (Test System: AMES SALMONELLA TYPHIMURIUM, Strain/Indicator: TA97, Metabolic Activation: HAMSTER, LIVER, S-9, AROCLOR 1254 (30%), Method: PREINCUBATION): inactive; negative
- mutagenic call [1]: inactive; negative
- mutagenic call (Test System: AMES SALMONELLA TYPHIMURIUM, Strain/Indicator: TA97, Metabolic Activation: RAT, LIVER, S-9, AROCLOR 1254 (10%), Method: PREINCUBATION): inactive; negative
- mutagenic call (Test System: AMES SALMONELLA TYPHIMURIUM, Strain/Indicator: TA97, Metabolic Activation: RAT, LIVER, S-9, AROCLOR 1254 (30%), Method: PREINCUBATION): inactive; negative
- mutagenic call (Test System: AMES SALMONELLA TYPHIMURIUM, Strain/Indicator: TA98, Metabolic Activation: HAMSTER, LIVER, S-9, AROCLOR 1254 (10%), Method: PREINCUBATION): inactive; negative
- mutagenic call [5]: inactive; negative
- mutagenic call [2]: inactive; negative
- mutagenic call (Test System: AMES SALMONELLA TYPHIMURIUM, Strain/Indicator: TA98, Metabolic Activation: RAT, LIVER, S-9, AROCLOR 1254 (10%), Method: PREINCUBATION): inactive; negative
- mutagenic call [6]: inactive; negative
- mutagenic call (Test System: AMES SALMONELLA TYPHIMURIUM, Strain/Indicator: TA100, Metabolic Activation: HAMSTER, LIVER, S-9, AROCLOR 1254 (10%), Method: PREINCUBATION): inactive; negative
- mutagenic call [7]: inactive; negative
- mutagenic call [3]: inactive; negative
- mutagenic call (Test System: AMES SALMONELLA TYPHIMURIUM, Strain/Indicator: TA100, Metabolic Activation: RAT, LIVER, S-9, AROCLOR 1254 (10%), Method: PREINCUBATION): inactive; negative
- mutagenic call [8]: inactive; negative
- mutagenic call (Test System: AMES SALMONELLA TYPHIMURIUM, Strain/Indicator: TA1535, Metabolic Activation: HAMSTER, LIVER, S-9, AROCLOR 1254 (10%), Method: PREINCUBATION): inactive; negative
- mutagenic call (Test System: AMES SALMONELLA TYPHIMURIUM, Strain/Indicator: TA1535, Metabolic Activation: HAMSTER, LIVER, S-9, AROCLOR 1254 (30%), Method: PREINCUBATION): inactive; negative
- mutagenic call [4]: inactive; negative
- mutagenic call (Test System: AMES SALMONELLA TYPHIMURIUM, Strain/Indicator: TA1535, Metabolic Activation: RAT, LIVER, S-9, AROCLOR 1254 (10%), Method: PREINCUBATION): inactive; negative
- mutagenic call (Test System: AMES SALMONELLA TYPHIMURIUM, Strain/Indicator: TA1535, Metabolic Activation: RAT, LIVER, S-9, AROCLOR 1254 (30%), Method: PREINCUBATION): inactive; negative
- mutagenic call (Test System: AMES SALMONELLA TYPHIMURIUM, Strain/Indicator: TA1537, Metabolic Activation: HAMSTER, LIVER, S-9, AROCLOR 1254 (30%), Method: PREINCUBATION): inactive; negative
- mutagenic call (Test System: AMES SALMONELLA TYPHIMURIUM, Strain/Indicator: TA1537, Metabolic Activation: NONE, Method: PREINCUBATION): inactive; negative
- mutagenic call (Test System: AMES SALMONELLA TYPHIMURIUM, Strain/Indicator: TA1537, Metabolic Activation: RAT, LIVER, S-9, AROCLOR 1254 (30%), Method: PREINCUBATION): inactive; negative

SMILES: CCOc1cc2c(c3ccc4ccccc4c13)CCC2=O
- mutagenic call (Test System: AMES SALMONELLA TYPHIMURIUM, Strain/Indicator: TA100, Metabolic Activation: RAT, LIVER, S-9, AROCLOR 1254, Method: STANDARD PLATE): inactive; negative

SMILES: [Co]
- mutagenic call (End Point: IN VITRO MICRONUCLEUS, Test System: HUMAN LYMPHOCYTES, Metabolic Activation: NONE): active; positive
- mutagenic call (Test System: AMES SALMONELLA TYPHIMURIUM, Strain/Indicator: TA98, Metabolic Activation: NONE, Method: STANDARD PLATE): active; positive
- mutagenic call (Test System: AMES SALMONELLA TYPHIMURIUM, Strain/Indicator: TA98, Metabolic Activation: RAT, LIVER, S-9, PHENOBARBITAL, Method: STANDARD PLATE): inactive; negative
- mutagenic call (Test System: AMES SALMONELLA TYPHIMURIUM, Strain/Indicator: TA102, Metabolic Activation: NONE, Method: STANDARD PLATE): inactive; negative
- mutagenic call (Test System: AMES SALMONELLA TYPHIMURIUM, Strain/Indicator: TA102, Metabolic Activation: RAT, LIVER, S-9, PHENOBARBITAL, Method: STANDARD PLATE): inactive; negative
- mutagenic call (Test System: AMES SALMONELLA TYPHIMURIUM, Strain/Indicator: TA1535, Metabolic Activation: NONE, Method: STANDARD PLATE): inactive; negative
- mutagenic call (Test System: AMES SALMONELLA TYPHIMURIUM, Strain/Indicator: TA1535, Metabolic Activation: RAT, LIVER, S-9, PHENOBARBITAL, Method: STANDARD PLATE): inactive; negative
- mutagenic call (Test System: AMES SALMONELLA TYPHIMURIUM, Strain/Indicator: TA1537, Metabolic Activation: NONE, Method: STANDARD PLATE): active; positive
- mutagenic call (Test System: AMES SALMONELLA TYPHIMURIUM, Strain/Indicator: TA1537, Metabolic Activation: RAT, LIVER, S-9, PHENOBARBITAL, Method: STANDARD PLATE): inactive; negative
